# Laboratory results reported in publication PMC6120666 (The EMBO Journal, 2018).
# Key:
# Test in all cases: Drug affinity chromatography with c-ponatinib and LC-MS/MS (ponatinib interactome)
# Assay type in all cases: binding
# [1] = target: T1, proteins of U2OS cell lysate (Homo sapiens, UniProt P04049)
# T1 construct: Proteins enriched by c-ponatinib from U2OS cell lysate; endogenous in cells; host or cells: U2OS cell lysate
# In short: (§1)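 Proteins were identified by nano-UPLC–MS/MS after elution with formic acid and trypsin digestion. They were captured from U2OS lysate (2 mg protein per pulldown, NP-40 buffer) on amine-coupled NHS beads during a 2 h incubation at 4 °C.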
# [2] = target: T2, proteins of U2OS cell lysate (Homo sapiens, UniProt Q9UQ35)
# T2 construct: Proteins enriched by c-ponatinib from U2OS cell lysate; endogenous in cells; host or cells: U2OS cell lysate
# In short: as §1
# [3] = target: T3, proteins of U2OS cell lysate (Homo sapiens, UniProt Q13347)
# T3 construct: Proteins enriched by c-ponatinib from U2OS cell lysate; endogenous in cells; host or cells: U2OS cell lysate
# In short: as §1
# [4] = target: T4, proteins of U2OS cell lysate (Homo sapiens, UniProt P07900)
# T4 construct: Proteins enriched by c-ponatinib from U2OS cell lysate; endogenous in cells; host or cells: U2OS cell lysate
# In short: as §1
# [5] = target: T5, proteins of U2OS cell lysate (Homo sapiens, UniProt O95816)
# T5 construct: Proteins enriched by c-ponatinib from U2OS cell lysate; endogenous in cells; host or cells: U2OS cell lysate
# T5 sequence (O95816 whole entry): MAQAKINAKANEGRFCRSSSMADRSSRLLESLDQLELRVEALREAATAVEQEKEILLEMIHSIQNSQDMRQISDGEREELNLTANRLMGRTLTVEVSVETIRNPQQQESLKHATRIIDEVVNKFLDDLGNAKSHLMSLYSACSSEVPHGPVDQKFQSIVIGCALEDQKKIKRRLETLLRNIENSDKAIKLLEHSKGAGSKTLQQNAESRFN
# In short: as §1
# [6] = target: T6, proteins of U2OS cell lysate (Homo sapiens, UniProt O75369)
# T6 construct: Proteins enriched by c-ponatinib from U2OS cell lysate; endogenous in cells; host or cells: U2OS cell lysate
# T6 sequence (O75369 whole entry): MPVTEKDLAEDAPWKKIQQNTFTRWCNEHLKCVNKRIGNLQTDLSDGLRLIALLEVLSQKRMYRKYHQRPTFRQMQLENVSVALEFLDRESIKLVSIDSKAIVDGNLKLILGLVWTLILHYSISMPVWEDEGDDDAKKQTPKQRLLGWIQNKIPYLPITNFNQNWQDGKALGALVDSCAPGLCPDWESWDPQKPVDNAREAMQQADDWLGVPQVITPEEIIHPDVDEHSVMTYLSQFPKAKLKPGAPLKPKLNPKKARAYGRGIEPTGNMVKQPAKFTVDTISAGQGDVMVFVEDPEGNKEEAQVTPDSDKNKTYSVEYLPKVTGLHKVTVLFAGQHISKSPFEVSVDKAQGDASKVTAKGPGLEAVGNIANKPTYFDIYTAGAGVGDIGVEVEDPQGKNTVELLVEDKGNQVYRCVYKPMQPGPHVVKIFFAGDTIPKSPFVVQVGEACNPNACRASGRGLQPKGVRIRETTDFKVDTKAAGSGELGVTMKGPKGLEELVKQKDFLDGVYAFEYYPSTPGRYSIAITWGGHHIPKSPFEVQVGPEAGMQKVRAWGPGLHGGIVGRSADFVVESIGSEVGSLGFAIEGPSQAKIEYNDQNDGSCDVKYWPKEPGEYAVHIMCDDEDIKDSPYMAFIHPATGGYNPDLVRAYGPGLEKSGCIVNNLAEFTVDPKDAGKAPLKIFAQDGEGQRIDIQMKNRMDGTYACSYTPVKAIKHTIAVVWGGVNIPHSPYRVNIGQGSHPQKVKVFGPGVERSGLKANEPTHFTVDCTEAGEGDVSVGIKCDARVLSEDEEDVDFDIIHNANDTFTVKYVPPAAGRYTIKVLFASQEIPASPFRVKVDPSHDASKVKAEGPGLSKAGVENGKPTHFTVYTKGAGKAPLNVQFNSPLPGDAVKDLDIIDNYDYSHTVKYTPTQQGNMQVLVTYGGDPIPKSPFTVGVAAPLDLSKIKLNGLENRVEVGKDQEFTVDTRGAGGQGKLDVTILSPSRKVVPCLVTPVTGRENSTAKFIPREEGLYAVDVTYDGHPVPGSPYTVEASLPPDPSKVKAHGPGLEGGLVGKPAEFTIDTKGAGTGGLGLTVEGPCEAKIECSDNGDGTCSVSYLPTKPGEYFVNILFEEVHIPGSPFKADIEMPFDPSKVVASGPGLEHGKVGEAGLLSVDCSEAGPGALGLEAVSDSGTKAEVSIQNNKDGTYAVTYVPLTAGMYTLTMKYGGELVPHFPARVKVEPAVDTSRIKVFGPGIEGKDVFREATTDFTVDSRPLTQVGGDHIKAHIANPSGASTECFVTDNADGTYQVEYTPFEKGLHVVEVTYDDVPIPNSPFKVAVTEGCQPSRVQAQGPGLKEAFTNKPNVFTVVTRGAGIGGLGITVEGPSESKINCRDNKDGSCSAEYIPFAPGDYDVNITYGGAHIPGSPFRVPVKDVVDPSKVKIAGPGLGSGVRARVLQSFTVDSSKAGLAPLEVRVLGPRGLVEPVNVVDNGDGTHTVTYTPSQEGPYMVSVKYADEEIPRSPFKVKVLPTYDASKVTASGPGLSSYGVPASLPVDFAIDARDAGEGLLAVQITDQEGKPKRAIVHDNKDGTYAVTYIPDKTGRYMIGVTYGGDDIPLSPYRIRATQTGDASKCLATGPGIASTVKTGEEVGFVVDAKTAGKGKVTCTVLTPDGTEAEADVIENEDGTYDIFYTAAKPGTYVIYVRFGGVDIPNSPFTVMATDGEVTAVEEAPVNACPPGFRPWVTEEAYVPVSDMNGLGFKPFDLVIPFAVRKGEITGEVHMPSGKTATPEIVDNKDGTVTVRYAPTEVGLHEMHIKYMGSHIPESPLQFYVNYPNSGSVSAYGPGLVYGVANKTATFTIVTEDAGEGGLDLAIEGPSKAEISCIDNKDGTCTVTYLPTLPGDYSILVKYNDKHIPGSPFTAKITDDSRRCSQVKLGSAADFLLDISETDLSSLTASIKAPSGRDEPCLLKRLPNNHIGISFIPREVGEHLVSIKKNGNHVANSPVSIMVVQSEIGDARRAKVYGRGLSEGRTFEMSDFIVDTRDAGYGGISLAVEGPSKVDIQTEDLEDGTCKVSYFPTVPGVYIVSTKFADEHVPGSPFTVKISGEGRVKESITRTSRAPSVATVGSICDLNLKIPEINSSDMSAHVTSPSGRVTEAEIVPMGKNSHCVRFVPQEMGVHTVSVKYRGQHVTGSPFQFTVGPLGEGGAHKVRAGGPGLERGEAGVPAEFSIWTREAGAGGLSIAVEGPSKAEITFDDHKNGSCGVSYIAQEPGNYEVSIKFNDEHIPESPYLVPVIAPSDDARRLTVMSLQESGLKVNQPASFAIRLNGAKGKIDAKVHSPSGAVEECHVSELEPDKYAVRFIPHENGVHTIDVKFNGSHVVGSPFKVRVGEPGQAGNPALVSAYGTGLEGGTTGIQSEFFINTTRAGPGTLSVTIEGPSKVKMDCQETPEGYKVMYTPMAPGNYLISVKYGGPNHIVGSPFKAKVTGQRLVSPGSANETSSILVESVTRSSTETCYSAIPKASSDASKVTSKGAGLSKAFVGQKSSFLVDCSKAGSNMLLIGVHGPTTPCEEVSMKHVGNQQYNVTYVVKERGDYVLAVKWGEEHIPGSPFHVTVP
# In short: as §1
# [7] = target: T7, proteins of U2OS cell lysate (Homo sapiens, UniProt P50613)
# T7 construct: Proteins enriched by c-ponatinib from U2OS cell lysate; endogenous in cells; host or cells: U2OS cell lysate
# T7 sequence (P50613 whole entry): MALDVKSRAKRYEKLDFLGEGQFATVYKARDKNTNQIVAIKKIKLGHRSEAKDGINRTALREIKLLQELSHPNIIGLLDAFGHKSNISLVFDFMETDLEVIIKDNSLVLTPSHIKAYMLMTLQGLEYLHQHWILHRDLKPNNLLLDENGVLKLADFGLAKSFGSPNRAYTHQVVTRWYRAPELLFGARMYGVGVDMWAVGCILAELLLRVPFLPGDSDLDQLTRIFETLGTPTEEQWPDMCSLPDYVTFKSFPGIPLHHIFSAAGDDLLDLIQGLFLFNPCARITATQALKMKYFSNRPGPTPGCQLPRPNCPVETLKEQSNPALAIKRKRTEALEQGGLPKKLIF
# In short: as §1
# [8] = target: T8, proteins of U2OS cell lysate (Homo sapiens, UniProt P06733)
# T8 construct: Proteins enriched by c-ponatinib from U2OS cell lysate; endogenous in cells; host or cells: U2OS cell lysate
# In short: as §1
# [9] = target: T9, proteins of U2OS cell lysate (Homo sapiens, UniProt Q15428)
# T9 construct: Proteins enriched by c-ponatinib from U2OS cell lysate; endogenous in cells; host or cells: U2OS cell lysate
# T9 sequence (Q15428 whole entry): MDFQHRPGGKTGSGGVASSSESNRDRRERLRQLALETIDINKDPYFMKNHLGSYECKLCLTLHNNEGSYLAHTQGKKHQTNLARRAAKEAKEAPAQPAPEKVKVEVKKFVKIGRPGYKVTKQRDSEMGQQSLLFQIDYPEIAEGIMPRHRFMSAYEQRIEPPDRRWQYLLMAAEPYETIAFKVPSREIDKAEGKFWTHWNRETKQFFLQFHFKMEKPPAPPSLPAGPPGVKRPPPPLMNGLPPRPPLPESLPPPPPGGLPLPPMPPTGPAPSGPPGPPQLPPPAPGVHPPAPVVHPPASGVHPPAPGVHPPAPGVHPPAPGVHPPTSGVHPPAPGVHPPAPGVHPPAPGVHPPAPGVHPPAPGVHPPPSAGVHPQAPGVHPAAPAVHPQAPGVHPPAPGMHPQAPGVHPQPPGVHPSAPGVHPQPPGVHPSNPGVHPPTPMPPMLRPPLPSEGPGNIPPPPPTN
# In short: as §1
# [10] = target: T10, proteins of U2OS cell lysate (Homo sapiens, UniProt P49006)
# T10 construct: Proteins enriched by c-ponatinib from U2OS cell lysate; endogenous in cells; host or cells: U2OS cell lysate
# T10 sequence (P49006 whole entry): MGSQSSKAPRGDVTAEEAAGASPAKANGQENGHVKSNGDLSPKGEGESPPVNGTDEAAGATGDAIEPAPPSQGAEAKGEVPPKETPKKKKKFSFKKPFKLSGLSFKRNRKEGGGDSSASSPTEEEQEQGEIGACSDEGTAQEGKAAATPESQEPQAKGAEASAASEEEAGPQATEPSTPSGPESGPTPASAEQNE
# In short: as §1
# [11] = target: T11, proteins of U2OS cell lysate (Homo sapiens, UniProt Q7RTV0)
# T11 construct: Proteins enriched by c-ponatinib from U2OS cell lysate; endogenous in cells; host or cells: U2OS cell lysate
# T11 sequence (Q7RTV0 whole entry): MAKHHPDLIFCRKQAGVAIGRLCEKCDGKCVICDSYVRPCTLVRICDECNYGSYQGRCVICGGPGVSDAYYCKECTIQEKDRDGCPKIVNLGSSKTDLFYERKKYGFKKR
# In short: as §1
# [12] = target: T12, proteins of U2OS cell lysate (Homo sapiens, UniProt P60228)
# T12 construct: Proteins enriched by c-ponatinib from U2OS cell lysate; endogenous in cells; host or cells: U2OS cell lysate
# T12 sequence (P60228 whole entry): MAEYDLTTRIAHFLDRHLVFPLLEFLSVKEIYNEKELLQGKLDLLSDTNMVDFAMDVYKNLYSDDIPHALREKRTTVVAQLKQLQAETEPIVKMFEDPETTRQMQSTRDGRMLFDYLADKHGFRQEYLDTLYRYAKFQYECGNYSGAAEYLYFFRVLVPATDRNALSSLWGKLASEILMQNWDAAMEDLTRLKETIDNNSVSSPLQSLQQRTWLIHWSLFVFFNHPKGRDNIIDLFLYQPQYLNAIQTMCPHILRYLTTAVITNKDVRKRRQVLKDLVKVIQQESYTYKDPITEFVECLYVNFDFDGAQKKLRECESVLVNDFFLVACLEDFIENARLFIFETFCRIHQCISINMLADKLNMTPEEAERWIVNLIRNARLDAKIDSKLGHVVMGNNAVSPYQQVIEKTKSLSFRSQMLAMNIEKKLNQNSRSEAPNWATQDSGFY
# In short: as §1
# [13] = target: T13, proteins of U2OS cell lysate (Homo sapiens, UniProt P25786)
# T13 construct: Proteins enriched by c-ponatinib from U2OS cell lysate; endogenous in cells; host or cells: U2OS cell lysate
# T13 sequence (P25786 whole entry): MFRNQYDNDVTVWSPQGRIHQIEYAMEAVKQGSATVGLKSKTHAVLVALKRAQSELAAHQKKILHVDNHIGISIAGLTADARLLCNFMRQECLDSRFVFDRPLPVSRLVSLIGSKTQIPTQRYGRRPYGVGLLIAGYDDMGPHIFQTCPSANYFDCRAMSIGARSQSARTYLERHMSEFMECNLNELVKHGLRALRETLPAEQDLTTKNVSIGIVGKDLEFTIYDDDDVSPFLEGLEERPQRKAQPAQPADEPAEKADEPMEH
# In short: as §1
# [14] = target: T14, proteins of U2OS cell lysate (Homo sapiens, UniProt P48643)
# T14 construct: Proteins enriched by c-ponatinib from U2OS cell lysate; endogenous in cells; host or cells: U2OS cell lysate
# In short: as §1
# [15] = target: T15, proteins of U2OS cell lysate (Homo sapiens, UniProt O75964)
# T15 construct: Proteins enriched by c-ponatinib from U2OS cell lysate; endogenous in cells; host or cells: U2OS cell lysate
# T15 sequence (O75964 whole entry): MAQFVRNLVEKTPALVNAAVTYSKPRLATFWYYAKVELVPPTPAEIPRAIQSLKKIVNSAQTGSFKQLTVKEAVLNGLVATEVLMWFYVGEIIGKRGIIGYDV
# In short: as §1
# [16] = target: T16, proteins of U2OS cell lysate (Homo sapiens, UniProt O75947)
# T16 construct: Proteins enriched by c-ponatinib from U2OS cell lysate; endogenous in cells; host or cells: U2OS cell lysate
# T16 sequence (O75947 whole entry): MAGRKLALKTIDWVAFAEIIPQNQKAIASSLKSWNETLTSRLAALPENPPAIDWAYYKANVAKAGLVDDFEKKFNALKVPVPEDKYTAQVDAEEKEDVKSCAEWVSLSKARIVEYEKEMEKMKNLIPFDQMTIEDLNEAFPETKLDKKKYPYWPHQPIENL
# In short: as §1
# [17] = target: T17, proteins of U2OS cell lysate (Homo sapiens, UniProt P29597)
# T17 construct: Proteins enriched by c-ponatinib from U2OS cell lysate; endogenous in cells; host or cells: U2OS cell lysate
# In short: as §1
# [18] = target: T18, proteins of U2OS cell lysate (Homo sapiens, UniProt P24539)
# T18 construct: Proteins enriched by c-ponatinib from U2OS cell lysate; endogenous in cells; host or cells: U2OS cell lysate
# In short: as §1
# [19] = target: T19, proteins of U2OS cell lysate (Homo sapiens, UniProt Q03252)
# T19 construct: Proteins enriched by c-ponatinib from U2OS cell lysate; endogenous in cells; host or cells: U2OS cell lysate
# In short: as §1
structure (smiles),measurement,setting,value
"Cc1ccc(C(=O)Nc2ccc(CN3CCN(CCCN)CC3)c(C(F)(F)F)c2)cc1C#Cc1cnc2cccnn12 [c-ponatinib, reference compound]",Average LFQ intensity,"[1]; captured protein RAF1, Rank 223",21.5685
same,Average LFQ intensity,"[2]; captured protein SRRM2, Rank 197",21.862
same,Average LFQ intensity,"[3]; captured protein EIF3I, Rank 135",22.8398
same,Average LFQ intensity,"[4]; captured protein HSP90AA1, Rank 195",21.9345
same,Average LFQ intensity,"[5]; captured protein BAG2, Rank 152",22.6462
same,Average LFQ intensity,"[6]; captured protein FLNB, Rank 198",21.8609
same,Average LFQ intensity,"[7]; captured protein CDK7, Rank 187",22.0619
same,Average LFQ intensity,"[8]; captured protein ENO1, Rank 190",21.9992
same,Average LFQ intensity,"[9]; captured protein SF3A2, Rank 134",22.8464
same,Average LFQ intensity,"[10]; captured protein MARCKSL1, Rank 225",21.5548
same,Average LFQ intensity,"[11]; captured protein PHF5A, Rank 194",21.937
same,Average LFQ intensity,"[12]; captured protein EIF3E, Rank 148",22.7111
same,Average LFQ intensity,"[13]; captured protein PSMA1, Rank 138",22.7928
same,Average LFQ intensity,"[14]; captured protein CCT5, Rank 171",22.2687
same,Average LFQ intensity,"[15]; captured protein ATP5L, Rank 125",22.9891
same,Average LFQ intensity,"[16]; captured protein ATP5H, Rank 115",23.183
same,Average LFQ intensity,"[17]; captured protein TYK2, Rank 155",22.5645
same,Average LFQ intensity,"[18]; captured protein ATP5F1, Rank 144",22.7408
same,Average LFQ intensity,"[19]; captured protein LMNB2, Rank 128",22.9109
Cc1ccc(C(=O)Nc2ccc(CN3CCN(C)CC3)c(C(F)(F)F)c2)cc1C#Cc1cnc2cccnn12 [PON],Average LFQ PON_WT,"[1]; RAF1, RAF proto-oncogene serine/threonine-protein kinase",21.5684
same,Average LFQ PON_WT,"[2]; SRRM2, Serine/arginine repetitive matrix protein 2",21.862
same,Average LFQ PON_WT,"[3]; EIF3I, Eukaryotic translation initiation factor 3 subunit I",22.8398
same,Average LFQ PON_WT,"[4]; HSP90AA1, Heat shock protein HSP 90-alpha",21.9345
same,Average LFQ PON_WT,"[5]; BAG2, BAG family molecular chaperone regulator 2",22.6462
same,Average LFQ PON_WT,"[6]; FLNB, Filamin-B",21.8609
same,Average LFQ PON_WT,"[7]; CDK7, Cyclin-dependent kinase 7",22.0619
same,Average LFQ PON_WT,"[8]; ENO1, Alpha-enolase",21.9992
same,Average LFQ PON_WT,"[9]; SF3A2, Splicing factor 3A subunit 2",22.8464
same,Average LFQ PON_WT,"[10]; MARCKSL1, MARCKS-related protein",21.5548
same,Average LFQ PON_WT,"[11]; PHF5A, PHD finger-like domain-containing protein 5A",21.937
same,Average LFQ PON_WT,"[12]; EIF3E, Eukaryotic translation initiation factor 3 subunit E",22.7111
same,Average LFQ PON_WT,"[13]; PSMA1, Proteasome subunit alpha type-1",22.7928
same,Average LFQ PON_WT,"[14]; CCT5, T-complex protein 1 subunit epsilon",22.2687
same,Average LFQ PON_WT,"[15]; ATP5L, ATP synthase subunit g, mitochondrial",22.9891
same,Average LFQ PON_WT,"[16]; ATP5H, ATP synthase subunit d, mitochondrial",23.183
same,Average LFQ PON_WT,"[17]; TYK2, Non-receptor tyrosine-protein kinase TYK2",22.5645
same,Average LFQ PON_WT,"[18]; ATP5F1, ATP synthase subunit b, mitochondrial",22.7408
same,Average LFQ PON_WT,"[19]; LMNB2, Lamin-B2",22.9109
